How the values were obtained:
barnyard grass [1] = test: Test Example 5: herbicidal effect by foliage application, plastic box (Table 20, symbol H); assay type: in vivo, barnyard grass (Echinochloa crus-galli); conditions: foliage application
Method in brief: (§1)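 Plants were sown into sterilized diluvial soil under about 1.5 cm cover and kept in a greenhouse at 25° C. to 30° C. Fourteen days on, foliage received an even spray of the diluted emulsion. Herbicidal or crop effect was judged three weeks afterwards.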

Chinese sprangletop = test: Test Example 3: herbicidal effect by foliage application, Wagner pot (Table 18, symbol D); assay type: in vivo, chinese sprangletop (Leptochloa chinensis)
Method in brief: (§2)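 Plants were sown in alluvial soil held under 0.1–0.5 cm standing water and grown 14 days in a greenhouse at 25–30 °C. An emulsifiable formulation, water-diluted to the set dose, was then sprayed onto the foliage, and effects were scored three weeks later using previously defined criteria.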

southern crabgrass [2] = test: Test Example 5: herbicidal effect by foliage application, plastic box (Table 20, symbol F); assay type: in vivo, southern crabgrass (Digitaria ciliaris); conditions: foliage application
Method in brief: as §1

false cleavers = test: Test Example 5: herbicidal effect by foliage application, plastic box (Table 20, symbol Q); assay type: in vivo, false cleavers (Galium spurium); conditions: foliage application
Method in brief: as §1

wild oat [3] = test: Test Example 4: herbicidal effect by soil treatment (Table 19, symbol I); assay type: in vivo, wild oat (Avena fatua)
Method in brief: (§3)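 Pre-emergence style soil spray: seeds under ~1.5 cm sterilized diluvial soil received a uniform coat of emulsion diluted to the predetermined herbicide amount. Greenhouse 25–30° C; readout at week three on previously defined criteria.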

windgrass [4] = test: Test Example 5: herbicidal effect by foliage application, plastic box (Table 20, symbol L); assay type: in vivo, windgrass (Apera spica-venti); conditions: foliage application
Method in brief: as §1

blackgrass [5] = test: Test Example 5: herbicidal effect by foliage application, plastic box (Table 20, symbol J); assay type: in vivo, blackgrass (Alopecurus myosuroides); conditions: foliage application
Method in brief: as §1

persian speedwell [6] = test: Test Example 4: herbicidal effect by soil treatment (Table 19, symbol R); assay type: in vivo, Persian speedwell (Veronica persica)
Method in brief: as §3

chickweed [7] = test: Test Example 5: herbicidal effect by foliage application, plastic box (Table 20, symbol P); assay type: in vivo, common chickweed (Stellaria media); conditions: foliage application
Method in brief: as §1

windgrass [8] = test: Test Example 4: herbicidal effect by soil treatment (Table 19, symbol L); assay type: in vivo, windgrass (Apera spica-venti)
Method in brief: as §3

barnyard grass [9] = test: Test Example 3: herbicidal effect by foliage application, Wagner pot (Table 18, symbol H); assay type: in vivo, barnyard grass (Echinochloa crus-galli)
Method in brief: as §2

redroot pigweed [10] = test: Test Example 5: herbicidal effect by foliage application, plastic box (Table 20, symbol N); assay type: in vivo, redroot pigweed (Amaranthus retroflexus); conditions: foliage application
Method in brief: as §1

oval-leafed pondweed = test: Test Example 1: herbicidal activity, application before weed generation under submerged conditions (Table 16, symbol C); assay type: in vivo, oval-leafed pondweed (Monochoria vaginalis); conditions: 320 g/ha applied herbicide
Method in brief: (§4)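 Submerged Wagner pots (alluvial soil, 4 cm water) sown with weed seeds and planted with 2.5-leaf rice seedlings; emulsifiable concentrate diluted in water applied to water surface on sowing day. Held in greenhouse at 25-30 °C; injury scored 0-5 by herbicidal rate after three weeks.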

Italian ryegrass [11] = test: Test Example 4: herbicidal effect by soil treatment (Table 19, symbol K); assay type: in vivo, Italian ryegrass (Lolium multiflorum)
Method in brief: as §3

wild oat [12] = test: Test Example 5: herbicidal effect by foliage application, plastic box (Table 20, symbol I); assay type: in vivo, wild oat (Avena fatua); conditions: foliage application
Method in brief: as §1

green foxtail [13] = test: Test Example 4: herbicidal effect by soil treatment (Table 19, symbol G); assay type: in vivo, green foxtail (Setaria viridis)
Method in brief: as §3

velvetleaf [14] = test: Test Example 4: herbicidal effect by soil treatment (Table 19, symbol M); assay type: in vivo, velvetleaf (Abutilon theophrasti)
Method in brief: as §3

lambsquarters [15] = test: Test Example 4: herbicidal effect by soil treatment (Table 19, symbol O); assay type: in vivo, lambsquarters (Chenopodium album)
Method in brief: as §3

late watergrass = test: Test Example 1: herbicidal activity, application before weed generation under submerged conditions (Table 16, symbol A); assay type: in vivo, late watergrass (Echinochloa oryzicola); conditions: 320 g/ha applied herbicide
Method in brief: as §4

redroot pigweed [16] = test: Test Example 4: herbicidal effect by soil treatment (Table 19, symbol N); assay type: in vivo, redroot pigweed (Amaranthus retroflexus)
Method in brief: as §3

velvetleaf [17] = test: Test Example 5: herbicidal effect by foliage application, plastic box (Table 20, symbol M); assay type: in vivo, velvetleaf (Abutilon theophrasti); conditions: foliage application
Method in brief: as §1

barnyard grass [18] = test: Test Example 4: herbicidal effect by soil treatment (Table 19, symbol H); assay type: in vivo, barnyard grass (Echinochloa crus-galli)
Method in brief: as §3

lambsquarters [19] = test: Test Example 5: herbicidal effect by foliage application, plastic box (Table 20, symbol O); assay type: in vivo, lambsquarters (Chenopodium album); conditions: foliage application
Method in brief: as §1

Japanese bulrush = test: Test Example 1: herbicidal activity, application before weed generation under submerged conditions (Table 16, symbol B); assay type: in vivo, Japanese bulrush (Schoenoplectus juncoides); conditions: 320 g/ha applied herbicide
Method in brief: as §4

southern crabgrass [20] = test: Test Example 4: herbicidal effect by soil treatment (Table 19, symbol F); assay type: in vivo, southern crabgrass (Digitaria ciliaris)
Method in brief: as §3

rice flat sedge = test: Test Example 3: herbicidal effect by foliage application, Wagner pot (Table 18, symbol E); assay type: in vivo, rice flat sedge (Cyperus iria)
Method in brief: as §2

persian speedwell [21] = test: Test Example 5: herbicidal effect by foliage application, plastic box (Table 20, symbol R); assay type: in vivo, Persian speedwell (Veronica persica); conditions: foliage application
Method in brief: as §1

chickweed [22] = test: Test Example 4: herbicidal effect by soil treatment (Table 19, symbol P); assay type: in vivo, common chickweed (Stellaria media)
Method in brief: as §3

green foxtail [23] = test: Test Example 5: herbicidal effect by foliage application, plastic box (Table 20, symbol G); assay type: in vivo, green foxtail (Setaria viridis); conditions: foliage application
Method in brief: as §1

Italian ryegrass [24] = test: Test Example 5: herbicidal effect by foliage application, plastic box (Table 20, symbol K); assay type: in vivo, Italian ryegrass (Lolium multiflorum); conditions: foliage application
Method in brief: as §1

blackgrass [25] = test: Test Example 4: herbicidal effect by soil treatment (Table 19, symbol J); assay type: in vivo, blackgrass (Alopecurus myosuroides); conditions: amount of applied herbicide 320 g/ha
Method in brief: as §3

[26] = AAH 320 g/ha, three weeks after application
[27] = 320 g/ha, evaluated three weeks after application
[28] = amount of applied herbicide 320 g/ha

Cc1nn(C)c(=O)c(-c2c(-c3ccccc3OCC3CC3)sc3ccccc23)c1O [1-113]
H: barnyard grass, herbicidal effect (barnyard grass [1]; [26]): 1 (Herbicidal rate of 5% or more and less than 20%)
herbicidal effect on D (Chinese sprangletop), rating 0-5 (Chinese sprangletop; 320 g/ha): 0 (Herbicidal rate of 5% or less (almost no effect))
F: southern crabgrass, herbicidal effect (southern crabgrass [2]; [26]): 0 (Herbicidal rate of 5% or less (almost no effect))
Q: false cleavers, herbicidal effect (false cleavers; [26]): 5 (Herbicidal rate of 90% or more (almost completely withered))
I: wild oat, herbicidal effect rating (wild oat [3]; AAH 320 g/ha): 1 (Herbicidal rate of 5% or more and less than 20%)
L: windgrass, herbicidal effect (windgrass [4]; [26]): 2 (Herbicidal rate of 20% or more and less than 40%)
J: blackgrass, herbicidal effect (blackgrass [5]; [26]): 3 (Herbicidal rate of 40% or more and less than 70%)
R: persian speedwell, herbicidal effect rating (persian speedwell [6]; AAH 320 g/ha): 5 (Herbicidal rate of 90% or more (almost completely withered))
P: chickweed, herbicidal effect (chickweed [7]; [26]): 5 (Herbicidal rate of 90% or more (almost completely withered))
L: windgrass, herbicidal effect rating (windgrass [8]; AAH 320 g/ha): 0 (Herbicidal rate of 5% or less (almost no effect))
herbicidal effect on H (barnyard grass), rating 0-5 (barnyard grass [9]; 320 g/ha): 4 (Herbicidal rate of 70% or more and less than 90%)
N: redroot pigweed, herbicidal effect (redroot pigweed [10]; [26]): 0 (Herbicidal rate of 5% or less (almost no effect))
Herbicidal effect on C: oval-leafed pondweed (grade 0-5) (oval-leafed pondweed): 0 (Herbicidal rate of 5% or less (almost no effect))
K: Italian ryegrass, herbicidal effect rating (Italian ryegrass [11]; AAH 320 g/ha): 0 (Herbicidal rate of 5% or less (almost no effect))
I: wild oat, herbicidal effect (wild oat [12]; [26]): 1 (Herbicidal rate of 5% or more and less than 20%)
G: green foxtail, herbicidal effect rating (green foxtail [13]; AAH 320 g/ha): 1 (Herbicidal rate of 5% or more and less than 20%)
M: velvetleaf, herbicidal effect rating (velvetleaf [14]; AAH 320 g/ha): 0 (Herbicidal rate of 5% or less (almost no effect))
O: lambsquarters, herbicidal effect rating (lambsquarters [15]; AAH 320 g/ha): 2 (Herbicidal rate of 20% or more and less than 40%)
Herbicidal effect on A: late watergrass (grade 0-5) (late watergrass): 3 (Herbicidal rate of 40% or more and less than 70%)
N: redroot pigweed, herbicidal effect rating (redroot pigweed [16]; AAH 320 g/ha): 3 (Herbicidal rate of 40% or more and less than 70%)
M: velvetleaf, herbicidal effect (velvetleaf [17]; [26]): 3 (Herbicidal rate of 40% or more and less than 70%)
H: barnyard grass, herbicidal effect rating (barnyard grass [18]; AAH 320 g/ha): 3 (Herbicidal rate of 40% or more and less than 70%)
O: lambsquarters, herbicidal effect (lambsquarters [19]; [26]): 0 (Herbicidal rate of 5% or less (almost no effect))
Herbicidal effect on B: Japanese bulrush (grade 0-5) (Japanese bulrush): 0 (Herbicidal rate of 5% or less (almost no effect))
F: southern crabgrass, herbicidal effect rating (southern crabgrass [20]; AAH 320 g/ha): 2 (Herbicidal rate of 20% or more and less than 40%)
herbicidal effect on E (rice flat sedge), rating 0-5 (rice flat sedge; 320 g/ha): 3 (Herbicidal rate of 40% or more and less than 70%)
R: persian speedwell, herbicidal effect (persian speedwell [21]; [26]): 5 (Herbicidal rate of 90% or more (almost completely withered))
P: chickweed, herbicidal effect rating (chickweed [22]; AAH 320 g/ha): 4 (Herbicidal rate of 70% or more and less than 90%)
G: green foxtail, herbicidal effect (green foxtail [23]; [26]): 0 (Herbicidal rate of 5% or less (almost no effect))
K: Italian ryegrass, herbicidal effect (Italian ryegrass [24]; [26]): 1 (Herbicidal rate of 5% or more and less than 20%)

CCCC(=O)Oc1c(C)nn(C)c(=O)c1-c1c(-c2ccc(OC)c(F)c2)sc2ccc(Cl)cc12 [2-118]
herbicidal effect on H: barnyard grass (barnyard grass [1]; [27]): 0 (Herbicidal rate of 5% or less (almost no effect))
herbicidal effect on D: Chinese sprangletop (Chinese sprangletop; [28]): 0 (Herbicidal rate of 5% or less (almost no effect))
herbicidal effect on F: southern crabgrass (southern crabgrass [2]; [27]): 0 (Herbicidal rate of 5% or less (almost no effect))
herbicidal effect on Q: false cleavers (false cleavers; [27]): 1 (Herbicidal rate of 5% or more and less than 20%)
I: wild oat, herbicidal effect rating (wild oat [3]; [28]): 0 (Herbicidal rate of 5% or less (almost no effect))
herbicidal effect on L: windgrass (windgrass [4]; [27]): 0 (Herbicidal rate of 5% or less (almost no effect))
herbicidal effect on J: blackgrass (blackgrass [5]; [27]): 0 (Herbicidal rate of 5% or less (almost no effect))
R: persian speedwell, herbicidal effect rating (persian speedwell [6]; [28]): 5 (Herbicidal rate of 90% or more (almost completely withered))
herbicidal effect on P: chickweed (chickweed [7]; [27]): 5 (Herbicidal rate of 90% or more (almost completely withered))
L: windgrass, herbicidal effect rating (windgrass [8]; [28]): 0 (Herbicidal rate of 5% or less (almost no effect))
herbicidal effect on H: barnyard grass (barnyard grass [9]; [28]): 2 (Herbicidal rate of 20% or more and less than 40%)
herbicidal effect on N: redroot pigweed (redroot pigweed [10]; [27]): 0 (Herbicidal rate of 5% or less (almost no effect))
Herbicidal effect on C: oval-leafed pondweed (grade 0-5) (oval-leafed pondweed): 0 (Herbicidal rate of 5% or less (almost no effect))
K: Italian ryegrass, herbicidal effect rating (Italian ryegrass [11]; [28]): 0 (Herbicidal rate of 5% or less (almost no effect))
J: blackgrass, herbicidal effect rating (blackgrass [25]): 0 (Herbicidal rate of 5% or less (almost no effect))
herbicidal effect on I: wild oat (wild oat [12]; [27]): 0 (Herbicidal rate of 5% or less (almost no effect))
G: green foxtail, herbicidal effect rating (green foxtail [13]; [28]): 0 (Herbicidal rate of 5% or less (almost no effect))
M: velvetleaf, herbicidal effect rating (velvetleaf [14]; [28]): 1 (Herbicidal rate of 5% or more and less than 20%)
O: lambsquarters, herbicidal effect rating (lambsquarters [15]; [28]): 2 (Herbicidal rate of 20% or more and less than 40%)
Herbicidal effect on A: late watergrass (grade 0-5) (late watergrass): 4 (Herbicidal rate of 70% or more and less than 90%)
N: redroot pigweed, herbicidal effect rating (redroot pigweed [16]; [28]): 0 (Herbicidal rate of 5% or less (almost no effect))
herbicidal effect on M: velvetleaf (velvetleaf [17]; [27]): 3 (Herbicidal rate of 40% or more and less than 70%)
H: barnyard grass, herbicidal effect rating (barnyard grass [18]; [28]): 0 (Herbicidal rate of 5% or less (almost no effect))
herbicidal effect on O: lambsquarters (lambsquarters [19]; [27]): 1 (Herbicidal rate of 5% or more and less than 20%)
Herbicidal effect on B: Japanese bulrush (grade 0-5) (Japanese bulrush): 3 (Herbicidal rate of 40% or more and less than 70%)
F: southern crabgrass, herbicidal effect rating (southern crabgrass [20]; [28]): 0 (Herbicidal rate of 5% or less (almost no effect))
herbicidal effect on E: rice flat sedge (rice flat sedge; [28]): 0 (Herbicidal rate of 5% or less (almost no effect))
herbicidal effect on R: persian speedwell (persian speedwell [21]; [27]): 5 (Herbicidal rate of 90% or more (almost completely withered))
P: chickweed, herbicidal effect rating (chickweed [22]; [28]): 4 (Herbicidal rate of 70% or more and less than 90%)
herbicidal effect on G: green foxtail (green foxtail [23]; [27]): 0 (Herbicidal rate of 5% or less (almost no effect))
herbicidal effect on K: Italian ryegrass (Italian ryegrass [24]; [27]): 0 (Herbicidal rate of 5% or less (almost no effect))
